In brackets after ≈: the same amount, converted by molar mass.
Columns and labels:
Assay type in all cases: functional
[1] = tested on: Staphylococcus epidermidis; assay: Antibacterial activity against Staphylococcus epidermidis 26069 by CLSI agar microdilution method
Enterococcus faecium = assay: Antibacterial activity against Enterococcus faecium 32220 by CLSI agar microdilution method
Streptococcus pneumoniae = assay: Antibacterial activity against Streptococcus pneumoniae 31002 by CLSI agar microdilution method
Staphylococcus = assay: Antibacterial activity against Staphylococcus albus 26101 by CLSI agar microdilution method
Staphylococcus aureus = assay: Antibacterial activity against Staphylococcus aureus 26003 by CLSI agar microdilution method
Streptococcus = assay: Antibacterial activity against Streptococcus gamma 32206 by CLSI agar microdilution method

MIC [1] [µg/mL]	MIC (Enterococcus faecium) [µg/mL]	MIC (Streptococcus pneumoniae) [µg/mL]	MIC (Staphylococcus) [µg/mL]	MIC (Staphylococcus aureus) [µg/mL]	MIC (Streptococcus) [µg/mL]	SMILES
> 25	3.13 (≈ 1.83 µM)	1.56 (≈ 0.913 µM)	3.13 (≈ 1.83 µM)	3.13 (≈ 1.83 µM)	1.56 (≈ 0.913 µM)	CN[C@H](CC(C)C)C(=O)N[C@H]1C(=O)N[C@@H](CC(N)=O)C(=O)N[C@H]2C(=O)N[C@H]3C(=O)N[C@H](C(=O)N[C@@H](C(=O)O)c4cc(O)cc(O)c4-c4cc3ccc4O)[C@H](O[C@H]3C[C@](C)(N)[C@H](O)[C@H](C)O3)c3ccc(c(Cl)c3)Oc3cc2cc(c3O[C@@H]2O[C@H](CO)[C@@H](O)[C@H](O)[C@H]2O[C@H]2C[C@](C)(NC/C=C/c3ccccc3)[C@H](O)[C@H](C)O2)Oc2ccc(cc2Cl)[C@H]1O
> 25	> 25	0.78 (≈ 0.465 µM)	3.13 (≈ 1.87 µM)	1.56 (≈ 0.93 µM)	1.56 (≈ 0.93 µM)	CCCCCCN[C@@]1(C)C[C@H](O[C@H]2[C@H](Oc3c4cc5cc3Oc3ccc(cc3Cl)[C@@H](O[C@H]3C[C@](C)(N)[C@H](O)[C@H](C)O3)[C@@H]3NC(=O)[C@H](NC(=O)[C@@H]5NC(=O)[C@H](CC(N)=O)NC(=O)[C@H](NC(=O)[C@@H](CC(C)C)NC)[C@H](O)c5ccc(c(Cl)c5)O4)c4ccc(O)c(c4)-c4c(O)cc(O)cc4[C@H](C(=O)O)NC3=O)O[C@H](CO)[C@@H](O)[C@@H]2O)O[C@@H](C)[C@H]1O
> 25	12.5 (≈ 7.04 µM)	3.13 (≈ 1.76 µM)	6.25 (≈ 3.52 µM)	6.25 (≈ 3.52 µM)	3.13 (≈ 1.76 µM)	CCCCCCCCCCNCCN[C@@]1(C)C[C@H](O[C@H]2[C@H](Oc3c4cc5cc3Oc3ccc(cc3Cl)[C@@H](O[C@H]3C[C@](C)(N)[C@H](O)[C@H](C)O3)[C@@H]3NC(=O)[C@H](NC(=O)[C@@H]5NC(=O)[C@H](CC(N)=O)NC(=O)[C@H](NC(=O)[C@@H](CC(C)C)NC)[C@H](O)c5ccc(c(Cl)c5)O4)c4ccc(O)c(c4)-c4c(O)cc(O)cc4[C@H](C(=O)O)NC3=O)O[C@H](CO)[C@@H](O)[C@@H]2O)O[C@@H](C)[C@H]1O
6.25 (≈ 3.49 µM)	6.25 (≈ 3.49 µM)	3.13 (≈ 1.75 µM)	3.13 (≈ 1.75 µM)	6.25 (≈ 3.49 µM)	3.13 (≈ 1.75 µM)	CN[C@H](CC(C)C)C(=O)N[C@H]1C(=O)N[C@@H](CC(N)=O)C(=O)N[C@H]2C(=O)N[C@H]3C(=O)N[C@H](C(=O)N[C@@H](C(=O)O)c4cc(O)cc(O)c4-c4cc3ccc4O)[C@H](O[C@H]3C[C@](C)(N)[C@H](O)[C@H](C)O3)c3ccc(c(Cl)c3)Oc3cc2cc(c3O[C@@H]2O[C@H](CO)[C@@H](O)[C@H](O)[C@H]2O[C@H]2C[C@](C)(NCc3ccc(-c4ccc(Cl)cc4)cc3)[C@H](O)[C@H](C)O2)Oc2ccc(cc2Cl)[C@H]1O
> 25	> 25	6.25 (≈ 3.61 µM)	6.25 (≈ 3.61 µM)	6.25 (≈ 3.61 µM)	6.25 (≈ 3.61 µM)	CCCCCCCCCCN[C@@]1(C)C[C@H](O[C@H]2[C@H](Oc3c4cc5cc3Oc3ccc(cc3Cl)[C@@H](O[C@H]3C[C@](C)(N)[C@H](O)[C@H](C)O3)[C@@H]3NC(=O)[C@H](NC(=O)[C@@H]5NC(=O)[C@H](CC(N)=O)NC(=O)[C@H](NC(=O)[C@@H](CC(C)C)NC)[C@H](O)c5ccc(c(Cl)c5)O4)c4ccc(O)c(c4)-c4c(O)cc(O)cc4[C@H](C(=O)O)NC3=O)O[C@H](CO)[C@@H](O)[C@@H]2O)O[C@@H](C)[C@H]1O
6.25 (≈ 3.55 µM)	1.56 (≈ 0.887 µM)	1.56 (≈ 0.887 µM)	1.56 (≈ 0.887 µM)	3.13 (≈ 1.78 µM)	0.78 (≈ 0.444 µM)	CN[C@H](CC(C)C)C(=O)N[C@H]1C(=O)N[C@@H](CC(N)=O)C(=O)N[C@H]2C(=O)N[C@H]3C(=O)N[C@H](C(=O)N[C@@H](C(=O)O)c4cc(O)cc(O)c4-c4cc3ccc4O)[C@H](O[C@H]3C[C@](C)(N)[C@H](O)[C@H](C)O3)c3ccc(c(Cl)c3)Oc3cc2cc(c3O[C@@H]2O[C@H](CO)[C@@H](O)[C@H](O)[C@H]2O[C@H]2C[C@](C)(NCc3ccc(-c4ccccc4)cc3)[C@H](O)[C@H](C)O2)Oc2ccc(cc2Cl)[C@H]1O
> 25	1.56 (≈ 0.864 µM)	1.56 (≈ 0.864 µM)	3.13 (≈ 1.73 µM)	1.56 (≈ 0.864 µM)	1.56 (≈ 0.864 µM)	CN[C@H](CC(C)C)C(=O)N[C@H]1C(=O)N[C@@H](CC(N)=O)C(=O)N[C@H]2C(=O)N[C@H]3C(=O)N[C@H](C(=O)N[C@@H](C(=O)O)c4cc(O)cc(O)c4-c4cc3ccc4O)[C@H](O[C@H]3C[C@](C)(N)[C@H](O)[C@H](C)O3)c3ccc(c(Cl)c3)Oc3cc2cc(c3O[C@@H]2O[C@H](CO)[C@@H](O)[C@H](O)[C@H]2O[C@H]2C[C@](C)(NCc3ccc(Oc4ccc(OC)cc4)cc3)[C@H](O)[C@H](C)O2)Oc2ccc(cc2Cl)[C@H]1O
